Reference: the NIST ThermoML archive (doi:10.1021/acs.jced.5b00820)
± gives the expanded uncertainty stated by the source.

Assay: refractive index (Na D-line) (dimensionless); xn = mol fraction of the nth substance listed
Settings: 102.2 kPa, Liquid, Standard Abbe refractometry

C[Si](C)(O[Si](C)(C)c1ccccc1)c1ccccc1 [1,3-diphenyltetramethyldisiloxane] + C=C[Si]1(C)O[Si](C)(C=C)O[Si](C)(C=C)O[Si](C)(C=C)O1
refractive index
Settings | 308.15 K | 313.15 K | 318.15 K | 323.15 K | 328.15 K
x1 = 0.0511 | 1.43117 ± 0.00035 | 1.4288 ± 0.0004 | 1.42643 ± 0.00035 | 1.42402 ± 0.00035 | 1.42168 ± 0.00035
x1 = 0.1004 | 1.43477 ± 0.00035 | 1.43241 ± 0.00035 | 1.43005 ± 0.00035 | 1.42765 ± 0.00035 | 1.42534 ± 0.00035
x1 = 0.1503 | 1.43849 ± 0.00035 | 1.4361 ± 0.00035 | 1.43374 ± 0.00035 | 1.43138 ± 0.00035 | 1.42904 ± 0.00035
x1 = 0.2 | 1.44222 ± 0.00035 | 1.43984 ± 0.00035 | 1.4375 ± 0.00035 | 1.43511 ± 0.00035 | 1.43277 ± 0.00035
x1 = 0.2537 | 1.4463 ± 0.00035 | 1.44393 ± 0.00035 | 1.44162 ± 0.00035 | 1.43922 ± 0.00035 | 1.43688 ± 0.00035
x1 = 0.3001 | 1.4499 ± 0.00035 | 1.44754 ± 0.00035 | 1.44521 ± 0.00035 | 1.44282 ± 0.00035 | 1.44051 ± 0.00035
x1 = 0.3507 | 1.45386 ± 0.00035 | 1.4515 ± 0.00035 | 1.44918 ± 0.00035 | 1.44682 ± 0.00035 | 1.44446 ± 0.00035
x1 = 0.4002 | 1.4578 ± 0.00035 | 1.45544 ± 0.00035 | 1.45312 ± 0.00035 | 1.45075 ± 0.00035 | 1.4484 ± 0.00035
x1 = 0.4503 | 1.46186 ± 0.00035 | 1.45951 ± 0.00035 | 1.45719 ± 0.00035 | 1.45481 ± 0.00035 | 1.45253 ± 0.00035
x1 = 0.4999 | 1.4659 ± 0.00035 | 1.46356 ± 0.00035 | 1.46122 ± 0.00035 | 1.45885 ± 0.00035 | 1.45654 ± 0.00035
x1 = 0.5501 | 1.47011 ± 0.00035 | 1.46778 ± 0.00035 | 1.46545 ± 0.00035 | 1.46309 ± 0.00035 | 1.46081 ± 0.00035
x1 = 0.597 | 1.47406 ± 0.00035 | 1.47174 ± 0.00035 | 1.46939 ± 0.00035 | 1.46705 ± 0.00035 | 1.46474 ± 0.00035
x1 = 0.6498 | 1.47861 ± 0.00035 | 1.47627 ± 0.00035 | 1.47398 ± 0.00035 | 1.47166 ± 0.00035 | 1.46934 ± 0.00035
x1 = 0.7005 | 1.48302 ± 0.00035 | 1.48067 ± 0.00035 | 1.47836 ± 0.00035 | 1.47601 ± 0.00035 | 1.47373 ± 0.00035
x1 = 0.7492 | 1.48734 ± 0.00035 | 1.48502 ± 0.00035 | 1.48271 ± 0.00035 | 1.48037 ± 0.00035 | 1.47809 ± 0.00035
x1 = 0.8001 | 1.49193 ± 0.00035 | 1.48963 ± 0.00035 | 1.4873 ± 0.00035 | 1.48499 ± 0.00035 | 1.48269 ± 0.00035
x1 = 0.8497 | 1.49647 ± 0.00035 | 1.49417 ± 0.00035 | 1.49187 ± 0.00035 | 1.4896 ± 0.00035 | 1.48727 ± 0.00035
x1 = 0.8999 | 1.50106 ± 0.00035 | 1.49877 ± 0.00035 | 1.49645 ± 0.00035 | 1.49415 ± 0.00035 | 1.4918 ± 0.0004
x1 = 0.9502 | 1.50586 ± 0.00035 | 1.50356 ± 0.00035 | 1.50122 ± 0.00035 | 1.49894 ± 0.00035 | 1.49665 ± 0.00035
x1 = 1 | 1.51066 ± 0.00035 | 1.50836 ± 0.00035 | 1.5061 ± 0.0004 | 1.50381 ± 0.00035 | 1.5015 ± 0.0004
